Data reported in ChEMBL document CHEMBL1201862, “PubChem BioAssay data set” (2004).
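Cells were grown in 96-well plates and exposed to each compound for 48 hours at five concentrations; endpoints were interpolated linearly between bracketing concentrations, or set to the highest concentration if not reached. Here, GI50 denotes the concentration required for 50% inhibition of growth.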 Active and inactive are the calls of the source. No stated cut-off is given here; in the data, active = GI50 up to about 1.1 µM and inactive = higher.

What was measured:
Test in all cases: NCI anticancer screen, dose series, 48 h
MCF7 = test system: MCF7
786-0 = test system: 786-0
PC-3 = test system: PC-3
HCT-15 = test system: HCT-15
HCC 2998 = test system: HCC 2998
UO-31 = test system: UO-31
OVCAR-3 = test system: OVCAR-3
SW-620 = test system: SW-620
RPMI-8226 = test system: RPMI-8226
RXF 393 = test system: RXF 393
OVCAR-8 = test system: OVCAR-8
SK-MEL-5 = test system: SK-MEL-5
EKVX = test system: EKVX
TK-10 = test system: TK-10
NCI-H23 = test system: NCI-H23
MDA-MB-435 = test system: MDA-MB-435
UACC-62 = test system: UACC-62
U-251 = test system: U-251
CAKI-1 = test system: CAKI-1

Row | Structure (SMILES) | GI50 (MCF7) | GI50 (786-0) | GI50 (PC-3) | GI50 (HCT-15) [µM] | GI50 (HCC 2998) | GI50 (UO-31) | GI50 (OVCAR-3) | GI50 (SW-620) | GI50 (RPMI-8226) | GI50 (RXF 393) | GI50 (OVCAR-8) | GI50 (SK-MEL-5) | GI50 (EKVX) | GI50 (TK-10) | GI50 (NCI-H23) | GI50 (MDA-MB-435) | GI50 (UACC-62) | GI50 (U-251) | GI50 (CAKI-1)
1 | O=C(Nn1c(-c2ccccc2)nc2ccccc2c1=O)c1cccc([N+](=O)[O-])c1 | 38 µM (inactive) | > 100 µM (inactive) | 43.1 µM (inactive) | 55.7 | > 100 µM (inactive) | 39.3 µM (inactive) | > 100 µM (inactive) | > 100 µM (inactive) | 46.8 µM (inactive) | > 100 µM (inactive) | > 100 µM (inactive) | 37.6 µM (inactive) | 57.9 µM (inactive) | 91.8 µM (inactive) | 57.1 µM (inactive) | > 100 µM (inactive) | 29.2 µM (inactive) | 62.4 µM (inactive) | 
2 | COc1ccc2c3c1O[C@H](c1ccc(O)cc1)[C@H]3[N+](C)(C)CC2 | > 100 µM (inactive) | > 100 µM (inactive) | 75.5 µM (inactive) | > 100 | > 100 µM (inactive) | > 100 µM (inactive) | > 100 µM (inactive) | > 100 µM (inactive) | 47.4 µM (inactive) | > 100 µM (inactive) | > 100 µM (inactive) | 86.3 µM (inactive) | > 100 µM (inactive) | > 100 µM (inactive) | 46.6 µM (inactive) | > 100 µM (inactive) | > 100 µM (inactive) | > 100 µM (inactive) | > 100 µM (inactive)
3 | O=S(=O)(O)C1CCC(O)C2NCCCC21 (centres undefined) | > 100 µM (inactive) | > 100 µM (inactive) | > 100 µM (inactive) | > 100 | > 100 µM (inactive) | > 100 µM (inactive) | > 100 µM (inactive) | > 100 µM (inactive) | > 100 µM (inactive) | > 100 µM (inactive) | > 100 µM (inactive) | > 100 µM (inactive) | > 100 µM (inactive) | > 100 µM (inactive) |  | > 100 µM (inactive) | > 100 µM (inactive) | > 100 µM (inactive) | > 100 µM (inactive)
4 | O=C(CC(=O)N(C(=O)c1ccccc1)c1ccc(Cl)cc1)N/N=C\c1cc(/N=N/c2ccccc2Cl)ccc1O | > 100 µM (inactive) | 38.1 µM (inactive) | > 100 µM (inactive) | 75.7 | > 100 µM (inactive) | 45.6 µM (inactive) | 48 µM (inactive) | > 100 µM (inactive) | 68.2 µM (inactive) | 29.8 µM (inactive) | > 100 µM (inactive) |  | 90.2 µM (inactive) | 27.2 µM (inactive) | > 100 µM (inactive) | > 100 µM (inactive) | 70.5 µM (inactive) | 39 µM (inactive) | > 100 µM (inactive)
5 | CC1CC[C@@]2(OC1)OC1C[C@H]3[C@@H]4CC=C5CC(OC6OC(CO)C(OC7OC(CO)C(O)C(OC8OCC(O)C(O)C8O)C7OC7OC(CO)C(O)C(O)C7O)C(O)C6O)CCC5(C)[C@H]4CCC3(C)C1[C@@H]2C (some centres undefined) | 6.3 µM (inactive) | 5.9 µM (inactive) | 4.06 µM (inactive) | 14.9 | 4.68 µM (inactive) |  | 4.93 µM (inactive) | 3.98 µM (inactive) | 6.81 µM (inactive) | 4.76 µM (inactive) | 4.61 µM (inactive) | 4.67 µM (inactive) | 4.67 µM (inactive) | 7.43 µM (inactive) | 5.64 µM (inactive) | 5.78 µM (inactive) | 21.7 µM (inactive) | 4.68 µM (inactive) | 4.95 µM (inactive)
6 | CC(C)(C)C(=O)C(N)C(=O)C(C)(C)C | > 100 µM (inactive) | > 100 µM (inactive) | > 100 µM (inactive) | > 100 | > 100 µM (inactive) | > 100 µM (inactive) |  | > 100 µM (inactive) | > 100 µM (inactive) | > 100 µM (inactive) | > 100 µM (inactive) | > 100 µM (inactive) |  | > 100 µM (inactive) |  | > 100 µM (inactive) | > 100 µM (inactive) | > 100 µM (inactive) | > 100 µM (inactive)
7 | COc1cc2c(cc1OC)C(=O)/C(=C/c1cc(Cl)cc(Cl)c1)C2 | 2.99 µM (inactive) | 4.73 µM (inactive) | 4.03 µM (inactive) | 3.03 | 0.351 µM (active) | > 100 µM (inactive) | 3.33 µM (inactive) | 3.79 µM (inactive) | 4.94 µM (inactive) | 7.41 µM (inactive) |  | 2.54 µM (inactive) | 19.8 µM (inactive) | 55.3 µM (inactive) | 7.66 µM (inactive) | 1.7 µM (inactive) | 3.39 µM (inactive) | 5.32 µM (inactive) | 4.33 µM (inactive)
8 | CN(C)S(=O)(=O)Nc1nnc(S(N)(=O)=O)s1 | > 100 µM (inactive) | > 100 µM (inactive) | > 100 µM (inactive) | > 100 | > 100 µM (inactive) | > 100 µM (inactive) | > 100 µM (inactive) | > 100 µM (inactive) | > 100 µM (inactive) | > 100 µM (inactive) |  | > 100 µM (inactive) | > 100 µM (inactive) | > 100 µM (inactive) | > 100 µM (inactive) | > 100 µM (inactive) | > 100 µM (inactive) | > 100 µM (inactive) | > 100 µM (inactive)
9 | CC(CO)CCNc1ncnc2c1ncn2CCC#N (centres undefined) | > 100 µM (inactive) | > 100 µM (inactive) | > 100 µM (inactive) |  | > 100 µM (inactive) | > 100 µM (inactive) | > 100 µM (inactive) | > 100 µM (inactive) | > 100 µM (inactive) | > 100 µM (inactive) | > 100 µM (inactive) | > 100 µM (inactive) | > 100 µM (inactive) | > 100 µM (inactive) | > 100 µM (inactive) | > 100 µM (inactive) | > 100 µM (inactive) |  | > 100 µM (inactive)
10 | O=C(Cn1c2c(c3ccccc31)CCCC2)N1CCCCC1 | > 100 µM (inactive) | > 100 µM (inactive) | > 100 µM (inactive) | > 100 | > 100 µM (inactive) | > 100 µM (inactive) | > 100 µM (inactive) | > 100 µM (inactive) | > 100 µM (inactive) |  | > 100 µM (inactive) | > 100 µM (inactive) | > 100 µM (inactive) | > 100 µM (inactive) | > 100 µM (inactive) | > 100 µM (inactive) | > 100 µM (inactive) |  | > 100 µM (inactive)
11 | O=C(NC1CCCCC1)c1cc2ccccc2cc1O | 39.2 µM (inactive) | 26.3 µM (inactive) | 28.8 µM (inactive) | 26.4 | 23.5 µM (inactive) | 32.4 µM (inactive) |  | 35.2 µM (inactive) | 17.7 µM (inactive) | 30.5 µM (inactive) | 26.2 µM (inactive) | 19.6 µM (inactive) | 34.1 µM (inactive) | 73.3 µM (inactive) |  | 29.2 µM (inactive) | 27 µM (inactive) | 44.2 µM (inactive) | 47 µM (inactive)
